The supplement of paper PMC10307832

Legend:
Assay in all cases: relative viability (nuclei count vs DMSO), 5 days (fraction); higher = more cells survive
[1] = compound: C1=CC2=C(C=CC(=C2)C=C3C(=O)NC(=NCC4=CC=CS4)S3)N=C1 [RO-3306] + CC(=O)Nc1cccc(-n2c(=O)n(C3CC3)c(=O)c3c(Nc4ccc(I)cc4F)n(C)c(=O)c(C)c32)c1 [Trametinib] (partner 0.02 µM)
Method in brief: (§1)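 After 5 days of treatment, lung cancer cells in 1536-well plates were fixed and stained in a single step (final 0.05% Triton X-100, 1% formaldehyde, 1 ug/ml Hoechst) and their nuclei counted on 4× images. Treatment had been applied by pin tool the day after seeding as one drug alone or as a fixed anchor-drug dose with five library-drug doses (not always all listed) in √10 steps. Relative viability is the nuclei count of treated wells divided by that of vehicle wells, and values are medians of duplicate plates.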

[2] = compound: C1=CC2=C(C=CC(=C2)C=C3C(=O)NC(=NCC4=CC=CS4)S3)N=C1 [RO-3306] + CS(=O)(=O)N1CCN(Cc2cc3nc(-c4cccc5[nH]ncc45)nc(N4CCOCC4)c3s2)CC1 [Pictilisib] (partner 1 µM)
Method in brief: as §1

[3] = compound: O=S(=O)(c1ccccc1)N(CC(F)(F)F)c1ccc(C(O)(C(F)(F)F)C(F)(F)F)cc1 + Cc1cc(Nc2cc(N3CCN(C)CC3)nc(Sc3ccc(NC(=O)C4CC4)cc3)n2)n[nH]1 [Tozasertib] (partner 0.1 µM)
Method in brief: as §1

[4] = compound: O=S(=O)(c1ccccc1)N(CC(F)(F)F)c1ccc(C(O)(C(F)(F)F)C(F)(F)F)cc1 + Nc1nc2[nH]cc(CCc3ccc(C(=O)N[C@@H](CCC(=O)O)C(=O)O)cc3)c2c(=O)[nH]1 [Pemetrexed] (partner 0.2 µM)
Method in brief: as §1

Cell Line | relative viability ([1]; first compound 0.01 µM) | relative viability ([1]; first compound 0.03162 µM) | relative viability ([1]; first compound 0.1 µM) | relative viability ([1]; first compound 0.3162 µM) | relative viability ([1]; first compound 1 µM) | relative viability ([2]; first compound 0.01 µM) | relative viability ([2]; first compound 0.03162 µM) | relative viability ([2]; first compound 0.1 µM) | relative viability ([2]; first compound 0.3162 µM) | relative viability ([2]; first compound 1 µM) | relative viability ([3]; first compound 0.8 µM) | relative viability ([3]; first compound 2.53 µM) | relative viability ([3]; first compound 8 µM) | relative viability ([4]; first compound 0.8 µM) | relative viability ([4]; first compound 2.53 µM) | relative viability ([4]; first compound 8 µM)
201T | 0.691 | 0.727 | 0.706 | 0.725 | 0.671 | 0.671 | 0.616 | 0.668 | 0.663 | 0.559 | 0.927 | 0.854 | 0.863 | 0.331 | 0.343 | 0.401
A549 | – | – | – | – | – | 0.551 | 0.485 | 0.477 | 0.504 | 0.323 | – | – | – | – | – | –
A-427 | 0.782 | 0.802 | 0.679 | 0.758 | 0.669 | 0.707 | 0.735 | 0.638 | 0.781 | 0.483 | 0.186 | 0.216 | 0.298 | 0.939 | 0.937 | 1.05
ABC-1 | – | – | – | – | – | 0.688 | 0.725 | 0.712 | 0.732 | 0.866 | 0.172 | 0.19 | 0.202 | – | – | –
BEN | 1 | 0.895 | 1.02 | 1.13 | 1.13 | 0.559 | 0.487 | 0.532 | 0.697 | 0.623 | 0.615 | 0.549 | 0.508 | 0.702 | 0.742 | 0.972
CAL-12T | 0.374 | 0.302 | 0.309 | 0.245 | 0.324 | 0.359 | – | – | 0.411 | 0.462 | 0.299 | 0.331 | 0.242 | 1.29 | 1.06 | 0.982
COR-L23 | 0.656 | 0.374 | 0.558 | 0.532 | 0.656 | 0.816 | – | 0.835 | 0.77 | 0.67 | 0.159 | 0.152 | 0.164 | 0.2 | 0.193 | 0.208
COR-L 105 | 0.392 | 0.491 | 0.427 | 0.434 | 0.538 | 0.355 | 0.364 | 0.361 | 0.47 | 0.366 | 0.337 | 0.342 | 0.435 | 1.34 | 1.06 | 0.988
Calu-6 | – | – | – | – | – | 1.1 | 0.97 | 0.934 | 0.866 | 0.91 | – | – | – | – | – | –
ChaGo-K-1 | 0.954 | 0.829 | 0.859 | 0.856 | 0.559 | 0.692 | 0.701 | 0.449 | 0.69 | 0.49 | 0.225 | 0.209 | 0.235 | 0.263 | 0.264 | 0.272
EBC-1 | – | – | – | – | – | 0.454 | 0.327 | 0.397 | 0.448 | 0.286 | – | – | – | – | – | –
EKVX | 0.328 | 0.298 | 0.362 | 0.328 | 0.324 | 0.402 | 0.362 | 0.449 | 0.498 | 0.431 | 0.405 | 0.344 | 0.325 | 0.388 | 0.362 | 0.292
EMC-BAC-2 | 0.917 | 0.83 | 0.902 | 0.889 | 0.84 | 0.503 | 0.511 | 0.54 | 0.531 | 0.483 | 0.293 | 0.284 | 0.28 | 0.402 | 0.401 | 0.416
EPLC-272H | 0.272 | – | 0.293 | 0.284 | 0.271 | 0.3 | 0.211 | 0.275 | 0.255 | 0.287 | 0.366 | 0.379 | 0.312 | 0.361 | 0.41 | 0.376
H3255 | 0.791 | 0.533 | 0.584 | 0.557 | 0.546 | 0.556 | 0.486 | 0.481 | 0.491 | 0.56 | 0.629 | 0.663 | 0.66 | 0.602 | 0.526 | 0.502
HARA | 0.448 | – | 0.519 | 0.694 | 0.741 | 0.367 | 0.247 | 0.457 | 0.394 | 0.358 | 0.0946 | 0.0891 | 0.102 | 0.254 | – | 0.269
HCC-15 | 0.414 | 0.359 | 0.374 | 0.36 | 0.391 | 0.707 | 0.603 | 0.717 | 0.815 | 0.542 | 0.498 | 0.341 | 0.322 | 0.213 | 0.23 | 0.243
HCC-44 | 1.06 | 0.933 | 1.15 | 1.13 | 1.08 | 0.581 | 0.524 | 0.619 | 0.689 | 0.557 | – | 0.862 | 0.894 | 0.635 | 0.627 | 0.702
HCC-78 | 0.788 | 0.697 | 0.744 | 1.02 | 0.669 | 0.198 | 0.213 | 0.209 | 0.224 | 0.229 | 0.691 | 0.375 | 0.433 | 1.01 | 0.915 | 0.967
HCC-366 | 0.378 | 0.326 | 0.374 | 0.381 | 0.313 | 0.118 | 0.0988 | 0.149 | 0.214 | 0.106 | 0.133 | 0.0684 | 0.0773 | 0.16 | 0.182 | 0.174
HCC-827 | 0.544 | 0.476 | 0.516 | 0.571 | 0.462 | 0.913 | 0.983 | 0.878 | 1.07 | 1.05 | 0.419 | 0.414 | 0.406 | 0.266 | 0.246 | 0.239
HOP-62 | 0.433 | 0.383 | 0.384 | 0.398 | 0.36 | 0.898 | 0.564 | 0.759 | 0.686 | 0.471 | 0.392 | 0.35 | 0.26 | 0.238 | 0.271 | 0.243
IA-LM | – | – | – | – | – | 0.339 | 0.242 | 0.311 | 0.278 | 0.36 | – | – | – | – | – | –
